System: plants
Assay: Test D pre-emergence, other plants of Tables D1 and D3
Format: in vivo
Details: for damage to plant, ALOMY / damage to plant, AVEFA / damage to plant, BEAVA / damage to plant, BROTE / damage to plant, BRSNN / damage to plant, CHEAL / damage to plant, GALAP / damage to plant, HORVW / damage to plant, KCHSC / damage to plant, LOLPE / damage to plant, POAAN / damage to plant, POLCO / damage to plant, SINAR / damage to plant, STEME / damage to plant, VERPE: pre-emergence, 100=total damage, 0=no damage
Procedure, shortened: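 Damage was rated visually from 0 (none) to 100 (total), at 20 DAA for pre-emergence and 15 d for post-emergence. Plants grew from safener-treated seed in a glasshouse at 24/18° C. or 20/16° C. day/night, 65% humidity, watered twice daily.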

CN1CC(c2cc(C(F)(F)F)n(C)n2)C(C(=O)Nc2ccc(F)c(F)c2F)C1=O (racemic) [Compound 17]
damage to plant (100=total damage to plant; 0=no damage to plant), SORVU (SORVU, preemergent, rate 500, 20 DAA): 0 | damage to plant, ALOMY (rate 15, 20 DAA): 0 | damage to plant, AVEFA (rate 15, 20 DAA): 0 | damage to plant, BEAVA (rate 15, 20 DAA): 0 | damage to plant, BROTE (rate 15, 20 DAA): 0 | damage to plant, BRSNN (rate 15, 20 DAA): 0 | damage to plant, CHEAL (rate 15, 20 DAA): 0 | damage to plant, GALAP (rate 15, 20 DAA): 0 | damage to plant, HORVW (rate 15, 20 DAA): 0 | damage to plant, KCHSC (rate 15, 20 DAA): 0 | damage to plant, LOLPE (rate 15, 20 DAA): 0 | damage to plant, POAAN (rate 15, 20 DAA): 0 | damage to plant, POLCO (rate 15, 20 DAA): 0 | damage to plant, SINAR (rate 15, 20 DAA): 0 | damage to plant, STEME (rate 15, 20 DAA): 0 | damage to plant, VERPE (rate 15, 20 DAA): 0 | damage to plant, ALOMY (rate 30, 20 DAA): 0 | damage to plant, AVEFA (rate 30, 20 DAA): 0 | damage to plant, BEAVA (rate 30, 20 DAA): 0 | damage to plant, BROTE (rate 30, 20 DAA): 0 | damage to plant, BRSNN (rate 30, 20 DAA): 0 | damage to plant, CHEAL (rate 30, 20 DAA): 0 | damage to plant, GALAP (rate 30, 20 DAA): 0 | damage to plant, HORVW (rate 30, 20 DAA): 0 | damage to plant, KCHSC (rate 30, 20 DAA): 0 | damage to plant, LOLPE (rate 30, 20 DAA): 0 | damage to plant, POAAN (rate 30, 20 DAA): 20 | damage to plant, POLCO (rate 30, 20 DAA): 0 | damage to plant, SINAR (rate 30, 20 DAA): 0 | damage to plant, STEME (rate 30, 20 DAA): 0 | damage to plant, VERPE (rate 30, 20 DAA): 0 | damage to plant, ALOMY (rate 60, 20 DAA): 0 | damage to plant, AVEFA (rate 60, 20 DAA): 0 | damage to plant, BEAVA (rate 60, 20 DAA): 0 | damage to plant, BROTE (rate 60, 20 DAA): 0 | damage to plant, BRSNN (rate 60, 20 DAA): 0 | damage to plant, GALAP (rate 60, 20 DAA): 0 | damage to plant, HORVW (rate 60, 20 DAA): 0 | damage to plant, KCHSC (rate 60, 20 DAA): 0 | damage to plant, LOLPE (rate 60, 20 DAA): 20 | damage to plant, POAAN (rate 60, 20 DAA): 30 | damage to plant, POLCO (rate 60, 20 DAA): 0 | damage to plant, SINAR (rate 60, 20 DAA): 0 | damage to plant, STEME (rate 60, 20 DAA): 0 | damage to plant, VERPE (rate 60, 20 DAA): 0 | damage to plant, ALOMY (rate 130, 20 DAA): 50 | damage to plant, AVEFA (rate 130, 20 DAA): 60 | damage to plant, BEAVA (rate 130, 20 DAA): 0 | damage to plant, BROTE (rate 130, 20 DAA): 0 | damage to plant, BRSNN (rate 130, 20 DAA): 0 | damage to plant, CHEAL (rate 130, 20 DAA): 50 | damage to plant, GALAP (rate 130, 20 DAA): 0 | damage to plant, HORVW (rate 130, 20 DAA): 10 | damage to plant, KCHSC (rate 130, 20 DAA): 0 | damage to plant, LOLPE (rate 130, 20 DAA): 40 | damage to plant, POAAN (rate 130, 20 DAA): 70 | damage to plant, POLCO (rate 130, 20 DAA): 0 | damage to plant, SINAR (rate 130, 20 DAA): 0 | damage to plant, STEME (rate 130, 20 DAA): 10 | damage to plant, VERPE (rate 130, 20 DAA): 30 | damage to plant, ALOMY (rate 250, 20 DAA): 60 | damage to plant, AVEFA (rate 250, 20 DAA): 70 | damage to plant, BEAVA (rate 250, 20 DAA): 0 | damage to plant, BROTE (rate 250, 20 DAA): 40 | damage to plant, BRSNN (rate 250, 20 DAA): 0 | damage to plant, CHEAL (rate 250, 20 DAA): 60 | damage to plant, GALAP (rate 250, 20 DAA): 0 | damage to plant, HORVW (rate 250, 20 DAA): 40 | damage to plant, KCHSC (rate 250, 20 DAA): 10 | damage to plant, LOLPE (rate 250, 20 DAA): 80 | damage to plant, POAAN (rate 250, 20 DAA): 80 | damage to plant, POLCO (rate 250, 20 DAA): 20 | damage to plant, SINAR (rate 250, 20 DAA): 0 | damage to plant, STEME (rate 250, 20 DAA): 30 | damage to plant, VERPE (rate 250, 20 DAA): 60 | damage to plant, ALOMY (rate 500, 20 DAA): 80 | damage to plant, AVEFA (rate 500, 20 DAA): 80 | damage to plant, BEAVA (rate 500, 20 DAA): 10 | damage to plant, BROTE (rate 500, 20 DAA): 60 | damage to plant, BRSNN (rate 500, 20 DAA): 20 | damage to plant, CHEAL (rate 500, 20 DAA): 70 | damage to plant, GALAP (rate 500, 20 DAA): 20 | damage to plant, HORVW (rate 500, 20 DAA): 90 | damage to plant, KCHSC (rate 500, 20 DAA): 30 | damage to plant, LOLPE (rate 500, 20 DAA): 80 | damage to plant, POAAN (rate 500, 20 DAA): 90 | damage to plant, POLCO (rate 500, 20 DAA): 30 | damage to plant, SINAR (rate 500, 20 DAA): 0 | damage to plant, STEME (rate 500, 20 DAA): 60 | damage to plant, VERPE (rate 500, 20 DAA): 90

From patent US20220281848A1, “PYRAZOLE-SUBSTITUTED PYRROLIDINONES AS HERBICIDES” (FMC Corporation, priority 2019, published 2022)
